Patent US9458463B2, “Method for treatment of diabetes by a small molecule inhibitor for GRK5” (MAX-PLANCK-GESELLSCHAFT ZUR FÖRDERUNG DER WISSENSCHAFTEN …, priority 2010, dated 2016)

Legend:
[1] = system: beta-TC6 insulinoma cells; assay: Insulin release by beta-TC6 cells, rat/mouse insulin ELISA, high glucose; assay type: cell-based; conditions: for Insulin release by beta-TC6 cells compared with positive control Sunitinib / activation at 5 µM: 5 μM; for Insulin release by beta-TC6 cells compared with positive control Sunitinib: high glucose; for activation at 5 µM: Mus musculus, group II, 2 h, high glucose (4.5 g/L), % increase in regard to DMSO control (set at 0%)
Procedure: (§1) Release of insulin was detected using a rat/mouse insulin ELISA.
After incubation, the supernatant of the beta-TC6 insulinoma cells was diluted 1:20. The insulin release was measured with rat/mouse insulin ELISA (Merck Millipore Darmstadt, Cat. # EZRMI-13K) by following the manufacture protocol. The enzyme activity of the horseradish peroxidase of the immobilized biotinylated antibodies was monitored spectrophotometrically by the increased absorbency at 490 nm, and corrected by the absorbency at 610 nm.
as §1
The effect on the insulin release of each kinase depletion was monitored by using a rat/mouse insulin ELISA.
For the validation of the negative modulating kinases SCYL1, GRK5, and ADCK1, the target genes were depleted using four different siRNA-sequences each (FIG. 2A-D). The gene-depletion was measured via mRNA-levels after 72 hours while the insulin release was measured using a rat/mouse insulin ELISA after two hours incubation.

3T3-L1 cells = assay: Cell viability assay (CellTiter-Glo / automated cell number) in 3T3-L1; assay type: cell-based; conditions: Mus musculus, read-out: Inhibition of cell viability IC50
Text: (§2) Luminescent cell viability assay. For the detection of cell viability, the CellTiter-Glo® Luminescent Cell Viability Assay was used. This test is based on a luciferase reaction to measure the amount of ATP in cells. This correlates directly with the number of cells and their viability because cells lose the ability to synthesize ATP directly after e.g. loss of membrane integrity or a cytotoxic event. The protocol was adapted to 24 well plates and to the different culture conditions resulting in a standardized protocol which is described below. Cell lysis, inhibition of endogenous ATPases and detection of ATP was performed by adding the CellTiter-Glo® Reagent to the culture wells. Per well, 100 μl reagent were mixed with the same volume of proper Medium. Lysing of the cells took place by 10 min incubation at RT and moderate shaking. Three times 50 μl cell lysate was transferred into a white 96 well plate to eliminate stray light, and the bioluminescence was measured.
(§3) In a 96 well dish 10000 cells per well (100 μl) were seed and treated for 72 h. At the end of the treatment, cells were fixed with 4% paraformaldehyde in PBS for 15 minutes, permeabilized with 0.1% triton-X 100 in PBS for 15 minutes and stained with Hoechst 33342 (20 μg/ml in PBS; dilute from 20 mg/ml stock) directly to cells in 100 μl medium in PBS for 30 minutes at 37° C. Stained cells were imaged with a Cellomics ArrayScan VT I automated microscope. Images were analyzed with vHCS Scan Target Activation software v5.1.2 to identify apoptotic cells. Six fields per well of a 96 well plate we re-imaged at 10× magnification. First, cells were identified by their nuclei staining in channel 1 of Cellomics and their amount. Staining intensity was plotted and compared between NT controls and compound treated cells. Finally, data was obtained using vHCS View software v 5.1.2 and the numbers of cells present in the 96 well were identified as “Valid Object Count” whereas the percentage of infection was determined as “% selected”. IC50 values have been calculated accordingly.

C2C12 cells = assay: Cell viability assay (CellTiter-Glo / automated cell number) in C2C12; assay type: cell-based; conditions: Mus musculus, read-out: Inhibition of cell viability IC50
Text: as §2, §3

HepG2 cells = assay: Cell viability assay (CellTiter-Glo / automated cell number) in HepG2; assay type: cell-based; conditions: Homo sapiens, read-out: Inhibition of cell viability IC50
Text: as §2, §3

beta TC6 cells = assay: Cell viability assay (CellTiter-Glo / automated cell number) in beta TC6; assay type: cell-based; conditions: Mus musculus, read-out: Inhibition of cell viability IC50
Text: as §2, §3

full length GRK5 = target: T1, full length GRK5 (Homo sapiens, UniProt P34947); assay: GRK5 kinase activity assay, ADP Glo Kinase Assay technology (Promega); assay type: biochemical; conditions: group II; ADP Glo Kinase Assay (Table 9-B)
T1 construct: 6/2 fold concentrated full length GRK5 (Millipore, #14-714) in reaction buffer; purchased Millipore 14-714
T1 sequence (P34947 whole entry): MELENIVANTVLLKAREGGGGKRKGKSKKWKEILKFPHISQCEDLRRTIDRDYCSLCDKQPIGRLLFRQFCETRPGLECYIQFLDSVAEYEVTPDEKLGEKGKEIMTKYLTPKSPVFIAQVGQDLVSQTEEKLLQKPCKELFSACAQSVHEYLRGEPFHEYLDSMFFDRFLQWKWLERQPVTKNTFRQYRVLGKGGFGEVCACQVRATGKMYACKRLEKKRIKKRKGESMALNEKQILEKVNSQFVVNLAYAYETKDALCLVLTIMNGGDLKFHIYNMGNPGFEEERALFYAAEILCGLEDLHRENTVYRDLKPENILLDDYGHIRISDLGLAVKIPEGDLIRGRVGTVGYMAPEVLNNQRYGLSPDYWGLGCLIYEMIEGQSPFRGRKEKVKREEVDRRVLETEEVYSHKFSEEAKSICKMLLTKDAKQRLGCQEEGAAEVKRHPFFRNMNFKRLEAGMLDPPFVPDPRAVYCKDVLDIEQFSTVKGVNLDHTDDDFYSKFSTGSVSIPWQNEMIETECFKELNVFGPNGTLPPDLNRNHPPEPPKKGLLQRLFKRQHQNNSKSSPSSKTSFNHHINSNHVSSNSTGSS
Procedure: The maximal compound assay concentration was set to 100 μM, representing the compound assay concentration used in the primary screen.
Increasing concentrations of GRK5 are incubated together with 100 μM ATP in the absence and presence of 10 μM casein in a reaction buffer. Within this incubation non-phosphorylated casein is converted into phosphorylated casein and ATP is converted into ADP. Thereafter nonconverted ATP is digested into AMP by addition of the ADP-Glo™ Reagent. Subsequently the ADP that is produced by GRK5 activity is phosphorylated back to ATP by addition of Promega Kinase Detection Reagent. These ATP levels serve as measure for the GRK5 activity and are quantified by a luciferase/luciferin reaction.
For GRK5 kinase activity assay, the following protocol was used:
The reaction buffer used was composed of: 20 mM MES pH 6.0, 1 mM DTT, 10 mM MgCl2, 0.01% Tween20 and the reaction volume was 6 μL.
Firstly 4 μL 6/4 fold concentrated substrate and 6/4 fold concentrated ATP in 1 fold concentrated reaction buffer are added to each well of the assay plate. Subsequently 67 nL […] concentrated test compound in 100% DMSO are added to each well except to C− and C+ wells using pin tool. Then 67 nL 100% DMSO are pipetted to C− (no kinase, no compound) and C+ (no compound) wells using pin-tool and 2 μL reaction buffer are added to C− wells. […] After incubation for 120 min. at room temperature 6 μL ADP-Glo™ Reagent (ADP Glo™ Kinase Assay Kit: Promega, V9101) are added to each well to stop the kinase reaction and deplete the unconsumed ATP. After a second incubation for 40 min. at room temperature 12 μL of Kinase Detection Reagent are added to convert ADP to ATP and start luciferase/luciferin reaction for detection of ATP. […] Finally, after incubation for 40 min at room temperature the luminescence intensity was measured.
The activity of the compounds was classified according to IC50 for binding sites of Grk5 into the following ranges:
8800 Customer compounds were screened for their ability to inhibit the enzymatic activity of GRK5. Screening was performed using the ADP Glo™ Kinase Assay technology (Promega). The small molecular weight compounds were delivered at 10 mM stock concentration and were tested at a final assay concentration of 100 μM.
IC50 values were determined in triplicates at 12 concentrations with a dilution factor of three. Triplicates were measured on three different assay plates. The maximal compound assay concentration was set to 100 μM representing the compound assay concentration used in the primary screen. A larger maximal compound assay concentration could not be achieved since the maximal compound concentration on the compound plates was 10 mM (>1% DMSO concentration in the assay).

IC50 (HepG2 cells) [nM] | IC50 (full length GRK5) [nM] | SMILES | Insulin release by beta-TC6 cells compared with positive control Sunitinib [1] | IC50 (3T3-L1 cells) [nM] | IC50 (C2C12 cells) [nM] | IC50 (beta TC6 cells) [nM] | activation at 5 µM ([1]; Beta-TC6, 2 h) [%] | activation at 5 µM ([1]; Beta-TC6) [%] | Increase in insulin release ([1]; positive control of the siRNA validation, Sunitinib 5 μM, beta-TC6) [%]
1470 | 100 to 1000 | Cc1[nH]c(/C=C2\C(=O)Nc3ccc(C(=O)N[C@H](C)c4ccc(Cl)cc4)cc32)c(C)c1C(=O)N1CCCC1 [II.67, (3Z)-N-[(1R)-1-(4-chlorophenyl)ethyl]-3-{[3,5-dimethyl-4-(pyrrolidin-1-ylcarbonyl)-1H-pyrrol-2-yl]methylene}-2-oxoindoline-5-carboxamide] |  | 1520 | 3940 | 1940 | 159 |  | 
 | 100 to 1000 | CCC(NC(=O)c1ccc2c(c1)/C(=C/c1[nH]c(C)c(CCC(=O)O)c1C)C(=O)N2)c1ccc(F)c(F)c1 (centres unmarked) [II.133, (3Z)-3-(5-{5-[1-(3,4-difluoro-phenyl)-propylcarbamoyl]-2-oxo-1,2-dihydro-indol-3-ylidenemethyl}-2,4-dimethyl-1H-pyrrol-3-yl)-propionic acid] |  |  |  |  | 131 |  | 
1580 | 100 to 1000 | CC[C@@H](NC(=O)c1ccc2c(c1)/C(=C/c1[nH]c(C)c(CCC(=O)O)c1C)C(=O)N2)c1ccccc1 [II.130, (3Z)-3-{2,4-dimethyl-5-[2-oxo-5-(1R)-(1-phenyl-propylcarbamoyl)-1,2-dihydro-indol-3-ylidenemethyl]-1H-pyrrol-3-yl}-propionic acid] |  | > 10000 | > 10000 | 8520 | 103 |  | 
800 | 100 to 1000 | CCC(NC(=O)c1ccc2c(c1)/C(=C/c1[nH]c(C)c(C(=O)NCCN3CCCC3)c1C)C(=O)N2)c1cccc(Cl)c1 (centres unmarked) [II.11, (3Z)-N-[1-(3-chlorophenyl)propyl]-3-({3,5-dimethyl-4-[(2-pyrrolidin-1-ylethyl)carbamoyl]-1H-pyrrol-2-yl}methylene)-2-oxoindoline-5-carboxamide] |  | > 10000 | 3370 | 960 | 96 |  | 
1110 | 2000 to 10000 | Cc1cccc(C(C)NC(=O)c2ccc3c(c2)/C(=C/c2[nH]c(C)c(C(=O)N4CCN(C)CC4)c2C)C(=O)N3)c1 (centres unmarked) [II.51, (3Z)-3-({3,5-dimethyl-4-[(4-methylpiperazin-1-yl)carbonyl]-1H-pyrrol-2-yl}methylene)-N-[1-(3-methylphenyl)ethyl]-2-oxoindoline-5-carboxamide] |  | 1360 | 3340 | 1970 | 252 |  | 
630 | 100 to 1000 | CCC(NC(=O)c1ccc2c(c1)/C(=C/c1[nH]c(C)c(C(=O)NCCN3CCCC3)c1C)C(=O)N2)c1ccc(F)c(F)c1 (centres unmarked) [II.10, (3Z)-N-[1-(3,4-difluorophenyl)propyl]-3-({3,5-dimethyl-4-[(2-pyrrolidin-1-ylethyl)carbamoyl]-1H-pyrrol-2-yl}methylene)-2-oxoindoline-5-carboxamide] |  | > 10000 | 3230 | 670 | 164 |  | 
1230 | 1000 to 2000 | Cc1ccc([C@@H](C)NC(=O)c2ccc3c(c2)/C(=C/c2[nH]c(C)c(C(=O)N4CCN(C)CC4)c2C)C(=O)N3)cc1 [II.32, (3Z)-3-({3,5-dimethyl-4-[(4-methylpiperazin-1-yl)carbonyl]-1H-pyrrol-2-yl}methylene)-N-[(1R)-1-(4-methylphenyl)ethyl]-2-oxoindoline-5-carboxamide] |  | 700 | 4250 | 1600 | 143 |  | 
4510 | < 100 | CC[C@@H](NC(=O)c1ccc2c(c1)/C(=C/Nc1ccc(CN3CCCCC3)cc1)C(=O)N2)c1ccccc1 [II.69, (3Z)-2-oxo-N-[(1R)-1-phenylpropyl]-3-({[4-(piperidin-1-ylmethyl)phenyl]amino}methylene)-indoline-5-carboxamide] |  | > 10000 | 5630 | > 10000 |  |  | 

The next lines start with the compound.

SMILES | IC50 (HepG2 cells) [nM] | IC50 (full length GRK5) [nM] | Insulin release by beta-TC6 cells compared with positive control Sunitinib [1] | IC50 (3T3-L1 cells) [nM] | IC50 (C2C12 cells) [nM] | IC50 (beta TC6 cells) [nM] | activation at 5 µM ([1]; Beta-TC6, 2 h) [%] | activation at 5 µM ([1]; Beta-TC6) [%] | Increase in insulin release ([1]; positive control of the siRNA validation, Sunitinib 5 μM, beta-TC6) [%]
NC(=O)c1ccc(Nc2cc3[nH]c(-c4cccc(F)c4)cc3cn2)cc1 [compound 6, 4-[[2-(3-fluorophenyl)-1H-pyrrolo[3,2-c]pyridin-6-yl]amino]benzamide] |  |  | level similar to Sunitinib |  |  |  |  |  | 
CCC(NC(=O)c1ccc2c(c1)/C(=C/c1[nH]c(C)c(CCC(=O)O)c1C)C(=O)N2)c1ccc(Cl)cc1 (centres unmarked) [II.132, (3Z)-3-(5-{5-[1-(4-chloro-phenyl)-propylcarbamoyl]-2-oxo-1,2-dihydro-indol-3-ylidenemethyl}-2,4-dimethyl-1H-pyrrol-3-yl)-propionic acid] |  | 100 to 1000 |  |  |  |  | 117 |  | 
Cn1c(-c2cccnc2)cc2c(Nc3cccc(C(F)(F)F)c3)nccc21 [compound 243, 1-methyl-2-(3-pyridyl)-N-[3-(trifluoromethyl)phenyl]pyrrolo[3,2-c]pyridin-4-amine] |  |  | better effect on the insulin release by beta-TC6 cells than the positive control Sunitinib |  |  |  |  |  | 
COC(=O)[C@H](COC(C)(C)C)NC(=O)c1c(C)[nH]c(/C=C2\C(=O)Nc3ccc(C(=O)O)cc32)c1C [II.141, (3Z)-3-[4-(2-tert-butoxy-(1S)-1-methoxycarbonyl-ethylcarbamoyl)-3,5-dimethyl-1H-pyrrol-2-ylmethylene]-2-oxo-2,3-dihydro-1H-indole-5-carboxylic acid] | > 10000 | 2000 to 10000 |  | 3410 | > 10000 | > 10000 |  |  | 
COc1cccc([C@@H](C)NC(=O)c2ccc3c(c2)/C(=C/Nc2ccc(CN4CCCCC4)cc2)C(=O)N3)c1 [II.79, (3Z)-N-[(1R)-1-(3-methoxyphenyl)ethyl]-2-oxo-3-({[4-(piperidin-1-ylmethyl)phenyl]amino}methylene)indoline-5-carboxamide] | 2080 | < 100 |  | > 10000 | > 10000 | 2050 |  |  | 
CCN(CC)CCNC(=O)c1c(C)[nH]c(/C=C2\C(=O)Nc3ccc(F)cc32)c1C [Sunitinib, reference compound] |  |  |  |  |  |  |  | 80 | 76.52±13
